Source: US20230051694A1, “POLYPEPTIDE FRAGMENT B (MP-B) AND USE THEREOF” (SHANGHAI LONGXIN BIOMEDICAL TECHNOLOGY CO., LTD., priority 2021, published 2023)

System: DSS-induced IBD in mice
Experiment: Intervention effect on DSS-induced acute IBD mouse model
Assay type: in vivo, Male C57BL6 mice
Conditions: DSS 2.5 wt % induced acute IBD mice, 50 μg/kg intragastric; for colonic histopathologic score / colon length: 7 days pre-administration then daily with DSS, x±SD; for colonic histopathologic score: HE staining; for colon length: in cm (unit assumed)
Description: The administration of a DSS solution with a specified concentration to mice can induce an acute IBD model characterized by diarrhea, hematochezia, ulcer, and granulocyte infiltration. Mice were randomly grouped according to body weights of the mice. 40 healthy male C57BL6 mice were divided into four groups each with 10 mice:
blank control group: the mice were each intragastrically administered with water every day at a volume of 0.4 mL/20 g;
model group: the mice were each intragastrically administered with a DSS aqueous solution of a mass fraction of 2.5 wt % consecutively for 7 days, where the DSS aqueous solution was freshly prepared and changed every day;
(§1) MIMP positive control group: the mice were each given a pre-administration process for one week, that is, the mice were each intragastrically administered with an MIMP solution of a mass fraction of 50 μg/kg for the first 7 days, and then from day 8, the mice were each intragastrically administered with a DSS aqueous solution of a mass fraction of 2.5 wt % (at a volume of 0.4 mL/20 g) and an MIMP solution of a mass fraction of 50 μg/kg (at a volume of 0.4 mL/20 g) every day; and
as §1, with “MP-B experimental” for “MIMP positive control”, “MP-B” for “MIMP”, “and” for “and then”, “day.” for “day; and”
The body weight changes of mice in each group were recorded every day to determine whether the acute IBD mouse model was successfully established.
A mouse colon between an anus end to an ileocecal end was integrally collected, and a length of the colon was measured; and the colon was dissected along a longitudinal axis, feces therein were rinsed off, and then the colon was stored in 4% paramethanol.
The colon sample stored in 4% paramethanol in step 1.2 was subjected to histopathological section, stained with hematoxylin-eosin (HE), and dehydrated, obtained sections were sealed and examined under an optical microscope, and the histopathological scoring was conducted by two blind examination operators:
Experimental data in the above experimental method were expressed as (x±SD), the GraphPad Prism (ver. 8.0, GraphPad Software Inc., San Diego, Calif., USA) was used to plot a chart, the SPSS Program (ver. 25.0, SPSS Inc., Chicago, Ill., USA) was used for statistical test, and one-way ANOVA or independent two-sample t-test were used for significance test when the normality and homogeneity of variances were met. It was assumed that α=0.05, and P<0.05 indicates a statistically significant difference.

Molecule	colonic histopathological observation (HE staining micrographs)	colonic histopathologic score	colon length
SPLGSLDGRETMYNLGGVKYLFARMDQLKKQ (SPLGSLDGRXTMYNLXGVKYLFARXDQLKKQ; Sequence is synthesized; (10)..(10) Xaa can be Arg, Phe, Glu, Thr, or absent; (16)..(16) Xaa can be Asn, Val, Leu, Gly, or absent; (25)..(25) Xaa can be Ser, Glu, Met, Arg, or absent) [MP-B]	no obvious inflammation	1.4±0.6	8.0±0.5
THTVGSYFSVQNGYVGAFSQALGNSEYAMNSPLGSLDGRTTMYNLLGVKYLFAREDQ LKKQ (peptide, listed as Lactobacillus plantarum, positive control) THTVGSYFSVQNGYVGAFSQALGNSEYAMNSPLGSLDGRTTMYNLLGVKYLFAREDQLKKQ	–	3.1±0.2	7.6±0.5
